From patent publication US4950647A, “T cell immunopotentiator” (Nucleic Acid Research Institute, priority 1988, dated 1990)

Key:
[1] = test system: human lymphocytes (peripheral blood mononuclear cells); test: Phytohemagglutinin (PHA) induced lymphocyte proliferation; format: cell-based
Protocol: (§1) Peripheral blood mononuclear cells were isolated from heparinized peripheral blood of normal healthy donors as described in Sharma, B. and S. Gupta, "Antigen-specific primary cytotoxic T lymphocyte response in acquired immune deficiency syndrome (AIDS) and AIDS related complex", Clin. Exp. Immunol., 62:296, 1985. Briefly, blood was diluted 1:1 with Hanks balanced salt solution (HBSS). Peripheral blood mononuclear cells were separated on a Ficoll-Hypaque gradient. The peripheral blood mononuclear cells recovered from the interface were washed three times with HBSS and resuspended in RPMI-1640 containing 100 U/ml penicillin, 100 μg/ml streptomycin 2mM L-glutamine (GIBCO, Grand Island, N.Y.), and 10% heat-inactivated pooled A serum (Irvine Scientific, Irvine, Calif.), hereafter referred as complete medium (CM).
The ability of the compound 6-amino-(2-deoxy-α-D-erythropentofuranosyl)-imidazo[4,5,-C]pyridin-4-one to modulate lymphocyte response to plant mitogens was determined by the modified procedure of Sharma, B., O. Kohashi, M. R. Mickey, and P. T. Terasaki, "Effect of water soluble adjuvants on in vitro lymphocyte immunization", Cancer Res. 35:666, 1975. Peripheral blood mononuclear cells were cultured for 72-96 hr with phytohemagglutinin (Difco, Detroit, Mich.), Concanavalin A (Calbiochem, Calif.) or Pokeweed mitogen (GIBCO, Grand Island, N.Y.) in the presence and absence of 6-amino-(2-deoxy-α-D-erythro-pentofuranosyl)-imidazo[4,5,-C]pyridin- 4-one. The culture were set up in quadruplicate and pulsed with [^3 H]-thymidine for 16 hr and the [^3 H] thymidine incorporation was determined.
Lymphocytes from different donors where incubated with various concentration of phytohemagglutinin in absence and presence of 6-amino-(2-deoxy-α-D-erythro-pentofuranoxyl)imidazo-[4,5,-C]pyridin- 4-one.
[…] Lymphocyte proliferation was determined by ^3 H-thymidine incorporation.

[2] = test system: T lymphocytes (peripheral blood mononuclear cells); test: Cyclosporin A induced suppression of lymphocyte response to phytohemagglutinin / T cell mitogens, and its restoration; format: cell-based, human
Protocol: as §1
Cultures were pulsed for 16 hr and [^3 H]-thymidine incorporation was measured.
Peripheral blood mononuclear cells from normal donors were incubated with T cell mitogens in the presence and absence of this compound and then [^3 H-thymidine incorporation was measured.
Peripheral blood mononuclear cells were cultured with phytohemagglutinin in the presence of CsA (10 and 50 ng/0.2 ml) and 6-amino-(2-deoxy-α-D-erythro-pentofuranosyl)-imidazo[4,5,-C]pyridin- 4-one. Lymphocytes proliferation was determined by ^3 H-thymidine incorporation.

[3] = test system: S target cells (cultured lymphoblasts from SB cell line); test: Generation of antigen-specific primary cytotoxic T lymphocytes, 51Cr release, target S; format: cell-based, human; settings: for % Specific Cytotoxicity: Exp. 2, C + Sx, no compound 26
Protocol: Peripheral blood mononuclear cells from healthy donor A and C were cultured together with irradiated (3000 R) peripheral blood mononuclear cells from donor B and irradiated cells (SX) from B cells of the SB cell line, respectively, for five days. At the end of the incubation period, the cells were washed and resuspended in medium and then their cytotoxic activity was determined against the specific lymphoblast target cell B or S according to the procedure of Sharma and Gupta noted above.

[4] = donor 2, PHA 0.25 mg/0.2 ml, compound (0.1)
[5] = donor 2, PHA 1.0 mg/0.2 ml, compound (0.05)
[6] = donor 2, PHA 4.0 mg/0.2 ml, compound (0.038)
[7] = donor 3, PHA 0.25 mg/0.2 ml, compound (0.4)
[8] = donor 3, PHA 1.0 mg/0.2 ml, compound (0.2)
[9] = donor 3, PHA 1.0 mg/0.2 ml, compound (0.4)
[10] = donor 3, PHA 4.0 mg/0.2 ml, compound (0.2)
[11] = donor 3, PHA 4.0 mg/0.2 ml, compound (0.4)
[12] = donor 4, PHA 0.25 mg/0.2 ml, compound (0.4)
[13] = donor 4, PHA 1.0 mg/0.2 ml, compound (0.05)
[14] = donor 4, PHA 1.0 mg/0.2 ml, compound (0.4)
[15] = donor 4, PHA 4.0 mg/0.2 ml, compound (0.4)
[16] = donor 5, PHA 0.5 mg/0.2 ml, compound (0.05)
[17] = donor 5, PHA 1.0 mg/0.2 ml, compound (0.2)
[18] = donor 5, PHA 4.0 mg/0.2 ml, compound (0.2)
[19] = donor 6, PHA 0.5 mg/0.2 ml, compound (0.05)
[20] = donor 7, PHA 0.125 mg/0.2 ml, compound (0.4)
[21] = donor 7, PHA 0.125 mg/0.2 ml, compound (1.0)

`Nc1cc2c(ncn2[C@@H]2C[C@H](O)[C@@H](CO)O2)c(O)n1` [Test Compound, 6-amino-1-(2-deoxy-α-D-erythro-pentofuranosyl)imidazo[4,5-C]-pyridin-4-one] was tested, and the “activity in augmenting phytohemagglutinin response compared with interleukin-2” value ([1]; Table III) was “equals that of interleukin-2”, the “potentiation of lymphocyte response to phytohemagglutinin” value ([1]; all the 5 donors examined) was “striking potentiation” and the “3H-thymidine incorporation in PHA-stimulated cultures” value (“3H-thymidine incorporation” for short) [1, 4] was 56362 ± 8650 Counts per minute. The “% Potentiation” value [1, 4] was 294%, the “3H-thymidine incorporation” value [1, 5] was 110155 ± 5101 Counts per minute and the “% Potentiation” value [1, 5] was 41%. The “3H-thymidine incorporation” value [1, 6] was 127102 ± 3001 Counts per minute, the “% Potentiation” value [1, 6] was 53% and the “3H-thymidine incorporation” value [1, 7] was 34646 ± 6344 Counts per minute. The “% Potentiation” value [1, 7] was 1074%, the “3H-thymidine incorporation” value [1, 8] was 77757 ± 18381 Counts per minute and the “% Potentiation” value [1, 8] was 295%. The “3H-thymidine incorporation” value [1, 9] was 61653 ± 12029 Counts per minute, the “% Potentiation” value [1, 9] was 213% and the “3H-thymidine incorporation” value [1, 10] was 88518 ± 7387 Counts per minute. The “% Potentiation” value [1, 10] was 144%, the “3H-thymidine incorporation” value [1, 11] was 97950 ± 6240 Counts per minute and the “% Potentiation” value [1, 11] was 170%. The “3H-thymidine incorporation” value [1, 12] was 28765 ± 4475 Counts per minute, the “% Potentiation” value [1, 12] was 1171% and the “3H-thymidine incorporation” value [1, 13] was 50131 ± 4674 Counts per minute. The “% Potentiation” value [1, 13] was 88%, the “3H-thymidine incorporation” value [1, 14] was 91669 ± 7462 Counts per minute and the “% Potentiation” value [1, 14] was 244%. For the same compound, the “3H-thymidine incorporation” value [1, 15] was 119811 ± 2608 Counts per minute, the “% Potentiation” value [1, 15] was 91% and the “3H-thymidine incorporation” value [1, 16] was 66109 ± 2263 Counts per minute. For the same compound, the “% Potentiation” value [1, 16] was 71%, the “3H-thymidine incorporation” value [1, 17] was 79690 ± 3113 Counts per minute and the “% Potentiation” value [1, 17] was 79%. The “3H-thymidine incorporation” value [1, 18] was 93966 ± 6505 Counts per minute, the “% Potentiation” value [1, 18] was 103% and the “3H-thymidine incorporation” value [1, 19] was 16156 ± 3600 Counts per minute. For the same compound, the “% Potentiation” value [1, 19] was 110%, the “3H-thymidine incorporation” value [1, 20] was 25657 ± 2488 Counts per minute and the “% Potentiation” value [1, 20] was 353%. The “3H-thymidine incorporation” value [1, 21] was 23582 ± 3903 Counts per minute, the “% Potentiation” value [1, 21] was 317% and the “T cell proliferative response after addition of compound” value ([2]; FIG. 3, PHA + Cyclosporin A + compound) was 43,000 CPM. The “reversal of cyclosporin mediated suppression (partial)” value ([2]; magnitude of cyclosporin mediated suppression higher, T cell mitogens) was “over 50%”, the “restoration of lymphocyte proliferation” value ([2]; suppression about half of the total response, mitogen not stated) was “completely restored the lymphocyte proliferation” and the “reconstitution of immune response” value ([2]; suppression low, lower concentration of cyclosporin, T cell mitogens) was “essentially complete”. For the same compound, the “% Specific Cytotoxicity” value ([3]; compound (0.006)) was 42%, the “% Specific Cytotoxicity” value ([3]; compound (0.025)) was 36% and the “% Specific Cytotoxicity” value ([3]; compound (0.1)) was 53%. The “cytotoxic T lymphocyte activity” value ([3]; cultured lymphoblasts from the SB cell (leukemic) line) was “increased”.
